Marks after values point to notes of the source that are not given here.
Assays:
Pythium aphanidermatum = assay: Test A: bluegrass pythium blight, preventive spray on bluegrass seedlings; conditions: 200 ppm
Septoria tritici = assay: Test J: wheat leaf blotch, preventive spray on wheat seedlings; assay type: in vivo
Text: A dash (-) indicates no test results.

[1] = tested on: Colletotrichum orbiculare; assay: Test B: cucumber Colletotrichum anthracnose, preventive spray on cucumber seedlings
Septoria nodorum = assay: Test H: wheat glum blotch, preventive spray on wheat seedlings
Procedure: (the causal agent of wheat glum blotch) and incubated in a saturated atmosphere at 20° C. for 48 h, and then moved to a growth chamber at 22° C. for 5 days, after which disease ratings were made.

[2] = tested on: Erysiphe graminis f. sp. tritici; assay: Test L: wheat powdery mildew, preventive spray on wheat seedlings
Rhizoctonia oryzae = assay: Test G: turf brown patch, preventive spray on creeping bent grass seedlings
Procedure: (the causal agent of turf brown patch) and incubated in a saturated atmosphere at 27° C. for 24 h, and then moved to a growth chamber at 27° C. for 5 days, after which disease ratings were made.

fusarium graminearium = assay: Test I: wheat head scab, preventive spray on wheat seedlings; conditions: 200 ppm
Procedure: (the causal agent of wheat head scab) and incubated in a saturated atmosphere at 20° C. for 72 h, and then moved to a growth chamber at 22° C. for 5 days, after which disease ratings were made.

Botrytis cinerea = assay: Test E: tomato botrytis, preventive spray on tomato seedlings
Phytophthora infestans = assay: whole plant or invertebrate; assay type: in vivo; conditions: 200 ppm
[3] = tested on: Puccinia recondita f. sp. tritici; assay: Test K: wheat leaf rust, preventive spray on wheat seedlings
Plasmopara viticola = assay: Test D: grape downy mildew, spray after inoculation of grape seedlings; assay type: in vivo; conditions: 200 ppm
Text: Upon removal, disease ratings were made. […] A dash (-) indicates no test results.

SMILES | Test A disease control rating (Pythium aphanidermatum) [%] | Test J disease control rating (Septoria tritici; 200 ppm) [%] | Test B disease control rating ([1]; 200 ppm) [%] | Test H disease control rating (Septoria nodorum; 200 ppm) [%] | Test L disease control rating ([2]; 200 ppm) [%] | Test G disease control rating (Rhizoctonia oryzae; 200 ppm) [%] | Test I disease control rating (fusarium graminearium) [%] | Test E disease control rating (Botrytis cinerea; 200 ppm) [%] | Test F disease control rating (Phytophthora infestans) [%] | Test K disease control rating ([3]; 200 ppm) [%] | Test D disease control rating (Plasmopara viticola) [%] | Test J disease control rating (Septoria tritici; 40 ppm (*)) | Test B disease control rating ([1]; 40 ppm (*)) | Test H disease control rating (Septoria nodorum; 40 ppm (*)) | Test L disease control rating ([2]; 40 ppm (*)) | Test G disease control rating (Rhizoctonia oryzae; 40 ppm (*)) | Test E disease control rating (Botrytis cinerea; 40 ppm (*)) | Test K disease control rating ([3]; 40 ppm (*))
O=c1c(-n2cccn2)nc(Cl)c(-c2c(F)cccc2F)n1CC1CCCCC1 [compound 31] | 0 | 100 | 0 | 73 | 69 | 0 | 0 | 97 | 0 | 88 | 0 | – | – | – | – | – | – | –
CCC(C)Cn1c(-c2c(F)cccc2F)c(Cl)nc(-n2ccnn2)c1=O (stereo not shown) [compound 60] | 0 | – | – | – | – | – | 0 | – | 0 | – | 0 | 40* % | 0* % | 0* % | 0* % | 0* % | 95* % | 68* %
CCC(C)Cn1c(-c2c(F)cccc2F)c(Cl)nc(-n2ccnc2)c1=O (stereo not shown) [compound 61] | 0 | 40 | 0 | 0 | 0 | 0 | 0 | 0 | 0 | 0 | 0 | – | – | – | – | – | – | –
CCC(C)Cn1c(-c2c(F)cccc2F)c(Cl)nc(-n2nc(C)cc2C)c1=O (stereo not shown) [compound 62] | 0 | 15 | 0 | 0 | 0 | 0 | 0 | 31 | 0 | 83 | 0 | – | – | – | – | – | – | –
CCC(C)Cn1c(-c2c(F)cccc2F)c(Cl)nc(-n2ccc(C(F)(F)F)n2)c1=O (stereo not shown) [compound 63] | 0 | 90 | 0 | 0 | 0 | 72 | 0 | 0 | 0 | 89 | 0 | – | – | – | – | – | – | –
CCC(C)Cn1c(-c2c(F)cccc2F)c(Cl)nc(-n2nc(C)cc2C(F)(F)F)c1=O (stereo not shown) [compound 64] | 0 | 71 | 0 | 0 | 0 | 24 | 0 | 54 | 0 | 97 | 16 | – | – | – | – | – | – | –
CCC(C)Cn1c(-c2c(F)cccc2F)c(Cl)nc(-n2ccc(Br)n2)c1=O (stereo not shown) [compound 65] | 0 | 100 | 33 | 0 | 0 | 83 | 0 | 99 | 0 | 98 | 0 | – | – | – | – | – | – | –
CC(C)Cn1c(-c2c(F)cccc2F)c(Cl)nc(NN=C2CCCC2)c1=O [compound 73] | 0 | 59 | 0 | 0 | 0 | 0 | 0 | 97 | 0 | 80 | 0 | – | – | – | – | – | – | –
Cc1ccc(-c2c(Cl)nc(-n3cncn3)c(=O)n2CC(C)C)c(C)c1 [compound 79] | 0 | 100 | 83 | 100 | 92 | 46 | 0 | 100 | 0 | 97 | 0 | – | – | – | – | – | – | –
CC(C)Cn1c(-c2cc(Br)c3c(c2)OCO3)c(Cl)nc(-n2cccn2)c1=O [compound 89] | 0 | 0 | 0 | 0 | 0 | 0 | 0 | 0 | 0 | 0 | 0 | – | – | – | – | – | – | –
CC(C)Cn1c(-c2c(F)cccc2F)c(Cl)nc(-c2cnn(C)c2)c1=O [compound 100] | 0 | 3 | 0 | 0 | 13 | 0 | 0 | 0 | 0 | 26 | 0 | – | – | – | – | – | – | –
CC(C)Cn1c(-c2c(F)cccc2F)c(Cl)nc(-c2nccn2C)c1=O [compound 102] | 0 | 0 | 0 | 0 | 0 | 0 | 0 | 0 | 0 | 0 | 0 | – | – | – | – | – | – | –
CC(C)Cn1c(-c2c(F)cccc2F)c(Cl)nc(-c2ccnn2C)c1=O [compound 103] | 0 | 3 | 0 | 0 | 0 | 0 | 0 | 0 | 0 | 0 | 0 | – | – | – | – | – | – | –
O=c1c(-n2cncn2)nc(Cl)c(-c2c(F)cccc2F)n1Cc1ccccc1 [compound 105] | 0 | 98 | 0 | 64 | 0 | 24 | 0 | 100 | 0 | 100 | 0 | – | – | – | – | – | – | –

— patent publication US20080194585A1, “Fungicidal Pyrazine Derivatives” (priority 2005, published 2008)
